The record followed here is patent US11401271B2, “Fused heterocyclic compound, pyrazole-ring-containing fused heterocyclic compound, agricultural composition containing thereof, and method of using the composition” (SOUTH CHINA AGRICULTURAL UNIVERSITY, priority 2017, dated 2022).

Structures are written as SMILES.

In the first data set the test system is Spodoptera exigua. Description: whole plant or invertebrate. The data set is classed as in vivo. The settings on record: 500 ppm; 2nd-instar larvae, leaf immersion feeding. The gist of the method:
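Leaf immersion feeding: second-instar larvae (about 35 per vessel, triplicate) kept at 28° C on discs treated with 500 ppm test solution in 0.05% Tween-80. Mortality at 24 h, calculated relative to surviving larvae in the solvent control.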
As to `COC(=O)CC1Nc2c([S+]([O-])C(F)(F)F)c(C(F)(F)F)nn2-c2cncc(Cl)c21` (stereo not drawn) [b-88], the “Spodoptera exigua Mortality (%)” value is recorded as 100%.
As for `O=C(C1Nc2c([S+]([O-])C(F)(F)F)c(C(F)(F)F)nn2-c2cncc(Cl)c21)C(F)(F)F` (stereo not drawn) [b-94], the “Spodoptera exigua Mortality (%)” value worked out at 90%.
On to `CNC(=O)C1Nc2c([S+]([O-])C(F)(F)F)c(C(F)(F)F)nn2-c2cncc(Cl)c21` (stereo not drawn) [b-99], for which the “Spodoptera exigua Mortality (%)” value is recorded as 85%.
Still for that read-out and setting: with `[O-][S+](c1c(C(F)(F)F)nn2c1NC(Br)c1c(Cl)cncc1-2)C(F)(F)F` (stereo not drawn) [b-104] the figure was 96%.
For `COC(=O)CC1Nc2c(OC(F)(F)F)c(C#N)nn2-c2cncc(Cl)c21` (stereo not drawn) [b-111], the “Spodoptera exigua Mortality (%)” value stood at 100%.
In the case of `N#Cc1nn2c(c1OC(F)(F)F)NC(CC(=O)C(F)(F)F)c1c(Cl)cncc1-2` (stereo not drawn) [b-116], the “Spodoptera exigua Mortality (%)” value worked out at 98%.
The same measure, in the same setting: with `N#Cc1nn2c(c1OC(F)(F)F)NC(C#N)c1c(Cl)cncc1-2` (stereo not drawn) [b-118] the figure was 91%; with `CNC(=O)CC1Nc2c(OC(F)(F)F)c(C#N)nn2-c2cncc(Cl)c21` (stereo not drawn) [b-123], 95%; with `CC(C)C1Nc2c(OC(F)(F)F)c(C#N)nn2-c2cncc(Cl)c21` (stereo not drawn) [b-131], 95%.
Same read-out and setting: next, `COC(=O)CC1(C(=O)OC)Nc2c(C#N)c(C(F)(F)F)nn2-c2cncc(Cl)c21` (stereo not drawn) [b-136]: 100%; `COC(=O)CC1(C(=O)OC)Nc2c(C(F)(F)F)c(C#N)nn2-c2cc(C(F)(F)F)cc(Cl)c21` (stereo not drawn) [c-2]: 90%; `COC(=O)CC1(C(=O)OC)Nc2c(C#N)c(C(F)(F)F)nn2-c2cc(C(F)(F)F)cc(Cl)c21` (stereo not drawn) [c-4]: 100%.

A further data set has as its system Aphis craccivora. The data set can be described thus: whole plant or invertebrate. The data set is classed as in vivo. Particulars: 500 ppm; wingless adults, immersion 5 seconds, counted after 24 hours. Put shortly:
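Mortality scored 24 h after treatment as the reduction in live aphids versus a 0.05% Tween-80 control; three replicates, 23° C. Treatment was a 5 s immersion of wingless adults on bean sprouts in 500 ppm test solution containing 0.05% Tween-80, followed by air-drying.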
In the case of `COC(=O)CC1Nc2c([S+]([O-])C(F)(F)F)c(C(F)(F)F)nn2-c2cncc(Cl)c21` (stereo not drawn) [b-88], the “Aphis craccivora Mortality (%)” value amounted to 100%.
Same read-out and setting: next, `O=C(C1Nc2c([S+]([O-])C(F)(F)F)c(C(F)(F)F)nn2-c2cncc(Cl)c21)C(F)(F)F` (stereo not drawn) [b-94]: 100%.
As for `CNC(=O)C1Nc2c([S+]([O-])C(F)(F)F)c(C(F)(F)F)nn2-c2cncc(Cl)c21` (stereo not drawn) [b-99], the “Aphis craccivora Mortality (%)” value came to 100%.
`[O-][S+](c1c(C(F)(F)F)nn2c1NC(Br)c1c(Cl)cncc1-2)C(F)(F)F` (stereo not drawn) [b-104]: the “Aphis craccivora Mortality (%)” value came to 100%.
As to `COC(=O)CC1Nc2c(OC(F)(F)F)c(C#N)nn2-c2cncc(Cl)c21` (stereo not drawn) [b-111], the “Aphis craccivora Mortality (%)” value is 100%.
Turning to `N#Cc1nn2c(c1OC(F)(F)F)NC(CC(=O)C(F)(F)F)c1c(Cl)cncc1-2` (stereo not drawn) [b-116], the “Aphis craccivora Mortality (%)” value is reported as 100%.
Still for that read-out and setting: with `N#Cc1nn2c(c1OC(F)(F)F)NC(C#N)c1c(Cl)cncc1-2` (stereo not drawn) [b-118] the figure was 100%; with `CNC(=O)CC1Nc2c(OC(F)(F)F)c(C#N)nn2-c2cncc(Cl)c21` (stereo not drawn) [b-123], 100%; with `CC(C)C1Nc2c(OC(F)(F)F)c(C#N)nn2-c2cncc(Cl)c21` (stereo not drawn) [b-131], 100%.
Same read-out and setting: next, `COC(=O)CC1(C(=O)OC)Nc2c(C#N)c(C(F)(F)F)nn2-c2cncc(Cl)c21` (stereo not drawn) [b-136]: 100%; `COC(=O)CC1(C(=O)OC)Nc2c(C(F)(F)F)c(C#N)nn2-c2cc(C(F)(F)F)cc(Cl)c21` (stereo not drawn) [c-2]: 100%; `COC(=O)CC1(C(=O)OC)Nc2c(C#N)c(C(F)(F)F)nn2-c2cc(C(F)(F)F)cc(Cl)c21` (stereo not drawn) [c-4]: 100%.

A further data set relates to Plutella xylostella. The data set can be described thus: whole plant or invertebrate. The data set is classed as in vivo. The settings on record: 500 ppm; 2nd-instar larvae, leaf immersion feeding. Put shortly: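 Leaf immersion feeding test: 2nd-instar larvae (about 35 per vessel, 3 replicates) kept at 28° C. on 1.0 cm cabbage discs soaked 5 s in a 500 ppm solution with 0.05% Tween-80. Mortality after 24 h of exposure, calculated relative to live larvae in the Tween-80 control.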
As to `COC(=O)CC1Nc2c([S+]([O-])C(F)(F)F)c(C(F)(F)F)nn2-c2cncc(Cl)c21` (stereo not drawn) [b-88], the “Plutella xylostella Mortality (%)” value was 100%.
`O=C(C1Nc2c([S+]([O-])C(F)(F)F)c(C(F)(F)F)nn2-c2cncc(Cl)c21)C(F)(F)F` (stereo not drawn) [b-94]: the “Plutella xylostella Mortality (%)” value is 100%.
For the compound `CNC(=O)C1Nc2c([S+]([O-])C(F)(F)F)c(C(F)(F)F)nn2-c2cncc(Cl)c21` (stereo not drawn) [b-99], the “Plutella xylostella Mortality (%)” value was 91%.
With `[O-][S+](c1c(C(F)(F)F)nn2c1NC(Br)c1c(Cl)cncc1-2)C(F)(F)F` (stereo not drawn) [b-104], the “Plutella xylostella Mortality (%)” value is 96%.
Turning to `COC(=O)CC1Nc2c(OC(F)(F)F)c(C#N)nn2-c2cncc(Cl)c21` (stereo not drawn) [b-111], the “Plutella xylostella Mortality (%)” value is 100%.
On the same count and under the same terms, with `N#Cc1nn2c(c1OC(F)(F)F)NC(CC(=O)C(F)(F)F)c1c(Cl)cncc1-2` (stereo not drawn) [b-116] the figure was 100%; with `N#Cc1nn2c(c1OC(F)(F)F)NC(C#N)c1c(Cl)cncc1-2` (stereo not drawn) [b-118], 99%; with `CNC(=O)CC1Nc2c(OC(F)(F)F)c(C#N)nn2-c2cncc(Cl)c21` (stereo not drawn) [b-123], 99%.
Consider `CC(C)C1Nc2c(OC(F)(F)F)c(C#N)nn2-c2cncc(Cl)c21` (stereo not drawn) [b-131], for which the “Plutella xylostella Mortality (%)” value came to 95%.
In the case of `COC(=O)CC1(C(=O)OC)Nc2c(C#N)c(C(F)(F)F)nn2-c2cncc(Cl)c21` (stereo not drawn) [b-136], the “Plutella xylostella Mortality (%)” value amounted to 100%.
Turning to `COC(=O)CC1(C(=O)OC)Nc2c(C(F)(F)F)c(C#N)nn2-c2cc(C(F)(F)F)cc(Cl)c21` (stereo not drawn) [c-2], the “Plutella xylostella Mortality (%)” value is given as 95%.
For `COC(=O)CC1(C(=O)OC)Nc2c(C#N)c(C(F)(F)F)nn2-c2cc(C(F)(F)F)cc(Cl)c21` (stereo not drawn) [c-4], the “Plutella xylostella Mortality (%)” value came to 97%.

Another data set has as its system Solenopsis invicta. The data set can be described thus: whole plant or invertebrate. Type of data set: in vivo. The settings on record: 100 ppm; 24 h; water test tube poison-feeding. Put shortly:
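Mortality (%) of Solenopsis invicta, computed against live counts in control tubes, was recorded 24 h and 72 h after treatment at 25 °C. Compound was offered by oral feeding in test tubes at 100 ppm, diluted from a 10 g/L DMSO stock into water with 5% honey and 0.05% Tween-80.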
As for `COC(=O)CC1Nc2c([S+]([O-])C(F)(F)F)c(C(F)(F)F)nn2-c2cncc(Cl)c21` (stereo not drawn) [b-88], the “Solenopsis invicta Mortality (%) 24 h” value is 25%.
As to `O=C(C1Nc2c([S+]([O-])C(F)(F)F)c(C(F)(F)F)nn2-c2cncc(Cl)c21)C(F)(F)F` (stereo not drawn) [b-94], the “Solenopsis invicta Mortality (%) 24 h” value was found to be 20%.
Take `CNC(=O)C1Nc2c([S+]([O-])C(F)(F)F)c(C(F)(F)F)nn2-c2cncc(Cl)c21` (stereo not drawn) [b-99]: the “Solenopsis invicta Mortality (%) 24 h” value came to 24%.
Turning to `[O-][S+](c1c(C(F)(F)F)nn2c1NC(Br)c1c(Cl)cncc1-2)C(F)(F)F` (stereo not drawn) [b-104], the “Solenopsis invicta Mortality (%) 24 h” value is given as 20%.
Take `COC(=O)CC1Nc2c(OC(F)(F)F)c(C#N)nn2-c2cncc(Cl)c21` (stereo not drawn) [b-111]: the “Solenopsis invicta Mortality (%) 24 h” value was 24%.
Same read-out and setting: next, `N#Cc1nn2c(c1OC(F)(F)F)NC(CC(=O)C(F)(F)F)c1c(Cl)cncc1-2` (stereo not drawn) [b-116]: 20%.
Turning to `N#Cc1nn2c(c1OC(F)(F)F)NC(C#N)c1c(Cl)cncc1-2` (stereo not drawn) [b-118], the “Solenopsis invicta Mortality (%) 24 h” value is 14%.
As for `CNC(=O)CC1Nc2c(OC(F)(F)F)c(C#N)nn2-c2cncc(Cl)c21` (stereo not drawn) [b-123], the “Solenopsis invicta Mortality (%) 24 h” value was determined as 24%.
Regarding `CC(C)C1Nc2c(OC(F)(F)F)c(C#N)nn2-c2cncc(Cl)c21` (stereo not drawn) [b-131], the “Solenopsis invicta Mortality (%) 24 h” value is given as 11%.
`COC(=O)CC1(C(=O)OC)Nc2c(C#N)c(C(F)(F)F)nn2-c2cncc(Cl)c21` (stereo not drawn) [b-136]: the “Solenopsis invicta Mortality (%) 24 h” value came to 20%.
Take `COC(=O)CC1(C(=O)OC)Nc2c(C(F)(F)F)c(C#N)nn2-c2cc(C(F)(F)F)cc(Cl)c21` (stereo not drawn) [c-2]: the “Solenopsis invicta Mortality (%) 24 h” value amounted to 20%.
Take `COC(=O)CC1(C(=O)OC)Nc2c(C#N)c(C(F)(F)F)nn2-c2cc(C(F)(F)F)cc(Cl)c21` (stereo not drawn) [c-4]: the “Solenopsis invicta Mortality (%) 24 h” value turned out to be 29%.

Staying with this data set, now noted: 100 ppm; 72 h; water test tube poison-feeding.
Regarding `COC(=O)CC1Nc2c([S+]([O-])C(F)(F)F)c(C(F)(F)F)nn2-c2cncc(Cl)c21` (stereo not drawn) [b-88], the “Solenopsis invicta Mortality (%) 72 h” value is given as 100%.
Take `O=C(C1Nc2c([S+]([O-])C(F)(F)F)c(C(F)(F)F)nn2-c2cncc(Cl)c21)C(F)(F)F` (stereo not drawn) [b-94]: the “Solenopsis invicta Mortality (%) 72 h” value was determined as 100%.
With `CNC(=O)C1Nc2c([S+]([O-])C(F)(F)F)c(C(F)(F)F)nn2-c2cncc(Cl)c21` (stereo not drawn) [b-99], the “Solenopsis invicta Mortality (%) 72 h” value was found to be 90%.
With `[O-][S+](c1c(C(F)(F)F)nn2c1NC(Br)c1c(Cl)cncc1-2)C(F)(F)F` (stereo not drawn) [b-104], the “Solenopsis invicta Mortality (%) 72 h” value is given as 96%.
As for `COC(=O)CC1Nc2c(OC(F)(F)F)c(C#N)nn2-c2cncc(Cl)c21` (stereo not drawn) [b-111], the “Solenopsis invicta Mortality (%) 72 h” value was 100%.
With `N#Cc1nn2c(c1OC(F)(F)F)NC(CC(=O)C(F)(F)F)c1c(Cl)cncc1-2` (stereo not drawn) [b-116], the “Solenopsis invicta Mortality (%) 72 h” value is listed as 100%.
For `N#Cc1nn2c(c1OC(F)(F)F)NC(C#N)c1c(Cl)cncc1-2` (stereo not drawn) [b-118], the “Solenopsis invicta Mortality (%) 72 h” value stood at 99%.
Consider `CNC(=O)CC1Nc2c(OC(F)(F)F)c(C#N)nn2-c2cncc(Cl)c21` (stereo not drawn) [b-123], for which the “Solenopsis invicta Mortality (%) 72 h” value stood at 100%.
`CC(C)C1Nc2c(OC(F)(F)F)c(C#N)nn2-c2cncc(Cl)c21` (stereo not drawn) [b-131]: the “Solenopsis invicta Mortality (%) 72 h” value turned out to be 100%.
For the compound `COC(=O)CC1(C(=O)OC)Nc2c(C#N)c(C(F)(F)F)nn2-c2cncc(Cl)c21` (stereo not drawn) [b-136], the “Solenopsis invicta Mortality (%) 72 h” value is 97%.
`COC(=O)CC1(C(=O)OC)Nc2c(C(F)(F)F)c(C#N)nn2-c2cc(C(F)(F)F)cc(Cl)c21` (stereo not drawn) [c-2]: the “Solenopsis invicta Mortality (%) 72 h” value amounted to 97%.
Regarding `COC(=O)CC1(C(=O)OC)Nc2c(C#N)c(C(F)(F)F)nn2-c2cc(C(F)(F)F)cc(Cl)c21` (stereo not drawn) [c-4], the “Solenopsis invicta Mortality (%) 72 h” value was 93%.
